The record followed here is patent US20070025976A1, “Process for the purification of coenzyme Q10” (Cargill, Inc., priority 2005, published 2007).

This data set in a line: Solubility of pure CoQ10 in ethanol. In kind it is physicochemical. The protocol: The chromatography product from Example 8 is dissolved in 200 proof ethanol to create a 9 wt-% solution at 55° C. This should create a slightly sub-saturated solution. Table VI below provides solubility data for pure CoQ10 in ethanol.

Take `COC1=C(OC)C(=O)C(C/C=C(\C)CC/C=C(\C)CC/C=C(\C)CC/C=C(\C)CC/C=C(\C)CC/C=C(\C)CC/C=C(\C)CC/C=C(\C)CC/C=C(\C)CCC=C(C)C)=C(C)C1=O` [CoQ10, 2,3 dimethoxy-5 methyl-6 decaprenyl benzoquinone]: the Solubility runs as follows: (30 °C) 0.38 g/100 g Solvent; (50 °C) 8.99 g/100 g Solvent; (60 °C) 11.0 g/100 g Solvent.
